Patent US10131661B2, “High-solubility acetone-added pyrroloquinoline quinone salt” (Mitsubishi Gas Chemical Company, Inc., priority 2015, dated 2018)
≈ marks a conversion by molar mass, not a printed value.

Key:
[1] = Storage stability in a solid state, visual check after 1 month; format: physicochemical
Method: The HOP alkali metal salt fabricated in each Example was subjected to cold storage (4° C.) and room-temperature storage (23° C.) in a solid state, and changes after a lapse of 1 month were visually checked.

[2] = test system: Human uterine cancer cells, HeLa cells; test: Cell activity test (cell number by Cell Counting Kit 8); format: cell-based; conditions: 2 days
Method: Human uterine cancer cells, HeLa cells, were scattered on 96 wells so as to be 1,000 cells/well, and were cultivated in a DMEM (Invitrogen Corp.)+10% FBS culture medium under the condition of a 5% CO2 concentration and 37° C. in an incubator for one night. Thereafter, the HOP alkali metal salt fabricated in each Example was added to the culture medium so that the concentration of the HOP alkali metal salt became 4.9 mg/L and 19.5 mg/L. Further the cultivation was continued further for 2 days, and thereafter, the culture medium was removed from the wells; the well interiors were washed; and the number of the cells in the wells were measured by using a Cell Counting Kit 8 manufactured by Dojindo Laboratories. There are shown in the following Table the results in the case where the number of the cells when no HOP alkali metal salt was added to the culture medium was taken to be 100.

[3] = physchem; conditions: 30 °C, water, thermodynamic from solid
Method: (§1) Water in such an amount that the HOP alkali metal salt fabricated in each Example remained undissolved was added to 100 mg of the HOP alkali metal salt. The resultant solution was allowed to stand still at 30° C. for 1 hour or more. Then, the solution was centrifugally separated to thereby separate a supernatant liquid and the HOP alkali metal salt remaining undissolved, and thereafter, the supernatant was diluted and the absorbance at 360 nm was measured. The solubility was calculated from the obtained absorbance.

[4] = Chemical stability: color change on mixing with ascorbic acid aqueous solution; format: physicochemical; conditions: 10 mg sample, 200 μl of 10 mass % ascorbic acid aqueous solution
Method: [Chemical Stability] The HOP disodium fabricated in Example 1 and pyrroloquinoline quinone disodium were tested. 10 mg of the each sample was put in a test tube, and 200 μl of a 10 mass % ascorbic acid aqueous solution was mixed.

[5] = Measurement of the solubility (30° C.) of a HOP alkali metal salt to water; conditions: 1 hour or more, absorbance at 360 nm
Method: as §1

Molecule | Cold Storage (4° C.): visual change [1] | Room-Temperature Storage (23° C.): visual change [1] | other results
HOP 2.9 sodium | no change | no change | 
CC(=O)CC1(O)C(=O)c2cc(C(=O)O)[nH]c2-c2c(C(=O)O)cc(C(=O)O)nc21 (centres unmarked) [HOP free form, 5-Hydroxy-4-oxo-5-(2-oxopropyl)-4,5-dihydro-1H-pyrrolo[2,3-f]quinoline-2,7,9-tricarboxylic acid, reference compound] | no change |  | number of the cells (no addition taken to be 100) ([2]; 4.9 mg/L): 95; number of the cells (no addition taken to be 100) ([2]; 19.5 mg/L): 103; solubility [3]: 2.9 mM (≈ 1130 µg/mL)
HOP dipotassium | no change | no change | 
HOP disodium | no change | no change | number of the cells (no addition taken to be 100) ([2]; 4.9 mg/L): 116; number of the cells (no addition taken to be 100) ([2]; 19.5 mg/L): 130; color change with ascorbic acid [4]: no large change in the color; Saturated Solubility [5]: 290 mM
O=C(O)c1cc(C(=O)O)c2c(n1)C(=O)C(=O)c1cc(C(=O)O)[nH]c1-2 [PQQ free form, pyrroloquinoline quinone] |  |  | solubility [3]: 1 mM (≈ 330 µg/mL)
HOP 2.5 sodium | no change | no change | 
HOP disodium hydrogen carbonate cocrystal | no change | no change | 
HOP trisodium hydrogen carbonate cocrystal | no change | no change | 
CC(=O)CC1(O)C(=O)c2cc(C(=O)[O-])[nH]c2-c2c(C(=O)[O-])cc(C(=O)[O-])nc21.[Li+].[Li+].[Li+] (racemic) [HOP trilithium] | no change |  | 
CC(=O)CC1(O)C(=O)c2cc(C(=O)[O-])[nH]c2-c2c(C(=O)[O-])cc(C(=O)[O-])nc21.[Na+].[Na+].[Na+] (racemic) [HOP trisodium] | no change | change to brown | number of the cells (no addition taken to be 100) ([2]; 4.9 mg/L): 128; number of the cells (no addition taken to be 100) ([2]; 19.5 mg/L): 121
CC(=O)CC1(O)C(=O)c2cc(C(=O)[O-])[nH]c2-c2c(C(=O)[O-])cc(C(=O)[O-])nc21.[K+].[K+].[K+] (centres unmarked) [HOP tripotassium] | no change |  | 
O=C(O)c1cc(C(=O)O)c2c(n1)C(=O)C(=O)c1cc(C(=O)O)[nH]c1-2 [PQQ trisodium, reference compound] |  |  | Saturated Solubility [5]: 35 mM
O=C(O)c1cc(C(=O)O)c2c(n1)C(=O)C(=O)c1cc(C(=O)O)[nH]c1-2.[Na].[Na] [PQQ disodium, pyrroloquinoline quinone disodium, reference compound] |  |  | color change with ascorbic acid [4]: changed in the color to black; solubility [3]: 7.5 mM
HOP dilithium | no change | no change | 
